# From patent US20240285723A1, “COMBINATION COMPOSITIONS FOR THE TREATMENT OF PATHOGEN INFECTIONS AND ASSOCIATED COMPLICATIONS” (priority 2021, published 2024)
# Where no end group is shown, it is not given here.
# Columns and labels:
# [1] = system: LPS-injected mice; experiment: LPS-induced septic shock mouse model: survival and murine sepsis score (MSS); format: in vivo; details: for disease progression (MSS), compound alone / survival (MSS<3), compound alone: BCP 25 mg/kg or pregnenolone 10 mg/kg i.p. every 12 hrs from 24 h before LPS, n=7
# Protocol: Male wild type 8-10 weeks old mice of inbred strain C57BL/6J-RCC were obtained from Envigo Ltd. All experiments were in accordance and with the approval of the institutional animal care and use committee of Tel-Aviv University for these experiments (permit number 01-20-022). The mice were divided into treatment groups 24 hours before LPS administration. All treatments were administered intraperitoneally (IP). OGP was administered at the indicated doses only twice, 24 hrs before LPS and right before the LPS at a dose of 0.5, 5 or 15 μg/kg. Olorinab was administered at 0.33, 1, or 5 mg/kg twice a day starting 24 hours before LPS. DHEA was injected once a day at a dose of 30 mg/kg, starting 24 hr before LPS injection. β-Caryophyllene (BCP or BCP, used herein interchangeably) and Pregnenolone were injected every 12 hours starting 24 h before the LPS injection. A single IP injection of LPS was administered at 25 μg/gr dose. This study had 2 control groups as indicated in the experiments below. One that received PBS instead of the LPS injection (‘PBS’), and one that received PBS instead of the treatments (CB2 agonist or steroid) before the LPS injection (‘LPS’). For humane reasons murine sepsis score (MSS) was used as a surrogate for survival (Mai et al. Intensive Care Med Exp, 2018 Jul. 27; 6(1):20. doi: 10.1186/s40635-018-0184-3). A low MSS score (0-2) served as a surrogate for survival while mice that reached the score 3 were defined as critically ill and were euthanized.
# Statistical analyses—For survival experiments, Gehan-Breslow-Wilcoxon test was used for multiple groups comparison. For disease progression Dunnett's multiple comparisons test was used. Differences between groups were considered significant when P<0.05.
# A dose response experiment was conducted to test the potential effect of 5aa-OGP in the sepsis model (FIG. 1A). A single injection of 5aa-OGP was administered i.p. at 3 different doses, 0.5 μg/kg, 5 μg/kg and 15 μg/kg, 24 hours prior to the LPS injection; these concentrations were chosen based on the previous works in the lab.
# In a separate experiment, mice received a single i.p. injection of the optimal dose of 5aa-OGP (5 μg/kg) and 24 hours later were intraperitoneal (i.p) injected with a lethal dose of LPS. Control mice received a single PBS injection 24 hours prior to LPS injection.
# In order to test the therapeutic potential of another CB2 agonist, olorinab was tested in improving survival rate in a mouse model of septic shock induced by LPS injection. Olorinab was administered i.p. 24 hours prior to LPS injection followed by twice-daily injections of olorinab.
# The combinations DHEA+olorinab and DHEA+5aa-OGP were tested versus each compound alone and versus vehicle only (no treatment) in LPS-injected mice. The mice received the first dose of treatment 24 hr before LPS injection in the treated groups. All the injections were given i.p., olorinab doses were administered twice a day, DHEA and 5aa-OGP were administered once a day. LPS was given only once.
# The combination BCP+Pregnenolone was tested versus each compound alone and versus vehicle only (no treatment) in LPS-injected mice. Mice were pre-treated with ß-Caryophyllene (BCP. 25 mg/kg) and pregnenolone (Preg, 10 mg/kg), separately (FIG. 4A) and in combination 24 and 12 hrs before LPS injection (25 mg/kg) and then every 12 hrs. All the injections were given i.p., twice a day. LPS was given only once. A Murine Septic Score (MSS) was recorded every 12 hours (FIGS. 4A and 4C). Survival (FIGS. 4B and 4D) was defined as MSS<3. * P<0.05, n=7.
# [2] = system: polymicrobial sepsis; details: mice; Oberbeck et al. 2001; cited from earlier work
# [3] = system: patients with dcSSc or dermatomyositis; details: Phase II; dcSSc and dermatomyositis with active skin involvement; cited from earlier work
# [4] = system: COVID-19 patients; details: COVID-19 patients who did not require oxygen; cited from earlier work
# [5] = system: T-cells; experiment: T-cell subsets in spleen and bone marrow of treated mice; format: in vivo, mouse; details: 5 μg/kg/day daily for 5 days; 12-week-old mice
# From the text: This is likely due to its strong immunosuppressive actions, including a severe weakening of the humoral/acquired immune system. Our proposed approach uses CB2 agonists that have immunomodulatory roles. On one hand, OGP strongly suppresses the innate immune system, exemplified here as inhibition of cytokine expression by activated macrophages (FIG. 6), and suppression of xylene-induced ear edema (FIG. 7). On the other hand, OGP has no suppressive effects on the adaptive/acquired system, exemplified here by the unaffected number of T cell subsets in mice treated with 5aa-OGP (FIG. 7). 12-week-old mice were injected with 5 μg/kg/day 5aa-OGP, 3 mg/kg/day HU910, or with a vehicle control daily for 5 days. The spleen and bone marrow (BM) were analyzed.
compound,measurement,setting,value
"C=C1CC/C=C(\C)CC[C@@H]2[C@@H]1CC2(C)C [BCP, β-caryophyllene]","disease progression (MSS), compound alone",[1],slight beneficial effect
same,"survival (MSS<3), compound alone",[1],no significant effect
"C[C@]12CC[C@H](O)CC1=CC[C@@H]1[C@@H]2CC[C@]2(C)C(=O)CC[C@@H]12 [DHEA, Dehydroepiandrosterone]",TNF-α release,[2],reduction
same,activity of T-cellular immunity,[2],improved activity
same,survival in septic challenge,[2],increased survival
CCCCCCC(C)(C)c1cc(O)c2c(c1)OC(C)(C)[C@@H]1CC=C(C(=O)O)C[C@@H]21 [Lenabasum],physician-assessed and patient-reported efficacy outcomes,[3],improvement
"CC(=O)[C@H]1CC[C@H]2[C@@H]3CC=C4C[C@@H](O)CC[C@]4(C)[C@H]3CC[C@]12C [Pregnenolone, pregn-5-en-3β-ol-20-one]","disease progression (MSS), compound alone",[1],no significant effect
same,"survival (MSS<3), compound alone",[1],no significant effect
C[C@@H]1C[C@H]2[C@@H]3CCC4=CC(=O)C=C[C@]4(C)[C@@]3(F)[C@@H](O)C[C@]2(C)[C@@]1(O)C(=O)CO [dexamethasone],"mortality, patients who did not require oxygen",[4],significantly increased mortality
CC(C)(C)[C@@H](CO)NC(=O)c1nn(-c2c[n+]([O-])ccn2)c2c1C[C@@H]1C[C@H]21 [olorinab],survival percentage at 0.33 mg/kg,"[1]; 0.33 mg/kg twice daily, i.p.",best survival percentage
same,survival percentage at 1 mg/kg,"[1]; 1 mg/kg twice daily, i.p., p<0.05",best survival percentage
same,"survival of LPS treated mice, different doses","[1]; olorinab 0.33, 1 or 5 mg/kg i.p. twice daily from 24 h before LPS",beneficial effect
YGFGG [5aa-OGP],effect on T-cells in spleen and bone marrow,[5],did not affect T-cells
